# Assay results as given in article PMC12610274, “Identification of Marrubiin as a Cathepsin C Inhibitor for Treating Rheumatoid Arthritis” (Molecules, 2025).
# Assays:
# Dipeptidyl Peptidase 4 = Dipeptidyl Peptidase 4 (Homo sapiens, UniProt P27487); test: Recombinant dipeptidyl peptidases isolated enzyme assay, DPP4; format: biochemical; conditions: read-out: Dipeptidyl Peptidase 4 Enz (IC50: μM)
# Excerpt: Table 3 Inhibitory effects of marrubiin on dipeptidyl peptidase. | column: Dipeptidyl Peptidase 4 Enz (IC50: μM)
# NE = biological target: T1, NE (Homo sapiens, UniProt P08246); test: Recombinant NSPs isolated enzyme assay, NE; format: biochemical; conditions: read-out: NE Enz (IC50: μM)
# T1 construct: purchased MedChemExpress
# Excerpt: The protocol for evaluating the inhibitory potency of compounds against other cathepsins referred to the CTSC activity assay. Recombinant human CTSB, CTSL, CTSS and CTSK for testing were also purchased from R&D Systems Biotechnology Company. Recombinant human Cat G, NE, and PR3 For testing were purchased from MedChemExpress. A multi-functional microplate reader was used to measure the absorption of Z-Leu-Arg-AMC at excitation/emission wavelengths of 380/460 nm to assess the activity changes of CTSB and CTSL, while the absorption of MCA-Arg-Pro-Lys-Pro-Val-Glu-NVAL-Trp-Arg-Lys(DNP)-NH2 at 320/405 nm was measured to evaluate the activity changes of CTSS and CTSK. Different assay buffers were prepared for diluting samples and measuring the activities of specific NSPs: a buffer containing 50 mM Tris and 750 mM NaCl (pH 7.4) was used for NE and PR3; a buffer containing 50 mM Tris, 750 mM NaCl, 5 mM EDTA (pH 7.4) was used for Cat G; and a buffer containing 25 mM MES, 50 mM NaCl, 5 mM DTT (pH 6.0) was used for CTSC. Synthetic substrates were employed to assess the activities of NSPs and CTSC: H-Gly-Arg-AMC for CTSC, N-MeSuc-Ala-Ala-Pro-Val-pNA for NE, aminobenzoyl-Val-Ala-Asp-Cys-Ala-Asp-Gln-ethylenediamine 2,4-dinitrophenyl for PR3, and N-Suc-Ala-Ala-Pro-Phe-pNA for Cat G. Each group of tests was independently repeated at least 3 times, and IC50 values were calculated using SPSS 10.0.
# [1] = tested on: TNF-α, IL-6, IL-1β, MCP-1, CXCL2 in RAW 264.7 cells; test: LPS-induced cytokine and chemokine secretion, ELISA; format: cell-based, mouse; conditions: LPS-stimulated RAW 264.7 cells, 24 h, concentration-dependent
# Description: RAW264.7 cells in the logarithmic growth phase were counted and diluted to a concentration of 6 × 10^4 cells/mL. After thorough mixing, the cell suspension was seeded into 48-well plates and incubated in a humidified atmosphere containing 5% CO2 at 37 °C. Following 24 h of incubation, the culture medium was carefully aspirated, and the cells were gently washed with phosphate-buffered saline. […] After 1 h of pre-incubation, 30 μL of lipopolysaccharide (1 μg/mL) was added to each well except for the blank control group, which remained unstimulated. Following an additional 24 h incubation under identical conditions, the culture supernatants were collected to assess NO production using the Griess reagent assay. Concentrations of pro-inflammatory cytokines and chemokines were determined using commercially available ELISA kits according to the protocols.
# Cat G = test: Stability (protein level) of NSPs in U937 cells, Western blot, Cat G; format: cell-based, human; conditions: U937, 10 μM
# Description: The Western blot experiments in this study were performed as described below. Cells in the logarithmic growth phase were collected in appropriate numbers according to different experimental purposes. After being thoroughly washed with phosphate-buffered saline and centrifuged, the cell pellets were resuspended in phosphate-buffered saline to obtain single-cell suspensions. Cells were fully lysed using RIPA buffer (Beyotime, P0013B) supplemented with EDTA-free protease and phosphatase inhibitor (Abcam, ab201120). Total cellular protein solutions were obtained after centrifugation to remove cell debris. The isolated proteins were quantified using the BeyoBCA protein assay kit (Beyotime, P0399M) following the operational protocol. The quantified protein samples were thoroughly mixed with protein loading buffer, boiled on a dry bath for 5 min, and then cooled to room temperature for Western blot analysis. […] Finally, enhanced chemiluminescent horseradish peroxidase substrate (Tanon Science & Technology Co., Ltd., Shanghai, China, 180-506) was used to visualize protein bands on a ChemiDoc XRS system (Bio-Rad Laboratories, Inc., Hercules, CA, USA), and the protein bands were quantified using Image Lab analysis software (Version 6.1) (Bio-Rad). […]
# Sequence of Dipeptidyl Peptidase 4 (P27487 whole entry, species assumed): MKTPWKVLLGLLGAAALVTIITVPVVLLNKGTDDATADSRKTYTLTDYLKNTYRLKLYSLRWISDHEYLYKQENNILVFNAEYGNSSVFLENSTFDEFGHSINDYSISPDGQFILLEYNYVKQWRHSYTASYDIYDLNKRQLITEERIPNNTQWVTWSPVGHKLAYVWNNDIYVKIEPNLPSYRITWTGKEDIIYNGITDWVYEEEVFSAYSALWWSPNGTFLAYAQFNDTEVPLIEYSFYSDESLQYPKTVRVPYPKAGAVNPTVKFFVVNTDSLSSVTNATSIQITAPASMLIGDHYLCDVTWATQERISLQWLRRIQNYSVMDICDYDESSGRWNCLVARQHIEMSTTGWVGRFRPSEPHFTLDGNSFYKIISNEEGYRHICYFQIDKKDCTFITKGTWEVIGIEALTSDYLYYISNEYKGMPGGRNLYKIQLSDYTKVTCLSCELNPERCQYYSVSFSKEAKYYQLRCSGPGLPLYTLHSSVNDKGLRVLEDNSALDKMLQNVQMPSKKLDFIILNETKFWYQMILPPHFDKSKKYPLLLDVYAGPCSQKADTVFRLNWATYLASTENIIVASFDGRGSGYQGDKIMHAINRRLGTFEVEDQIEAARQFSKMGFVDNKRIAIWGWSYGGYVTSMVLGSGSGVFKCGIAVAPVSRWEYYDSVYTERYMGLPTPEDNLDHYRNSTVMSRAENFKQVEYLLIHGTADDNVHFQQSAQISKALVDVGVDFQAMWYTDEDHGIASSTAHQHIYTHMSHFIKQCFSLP
# T1 sequence (P08246 30-267): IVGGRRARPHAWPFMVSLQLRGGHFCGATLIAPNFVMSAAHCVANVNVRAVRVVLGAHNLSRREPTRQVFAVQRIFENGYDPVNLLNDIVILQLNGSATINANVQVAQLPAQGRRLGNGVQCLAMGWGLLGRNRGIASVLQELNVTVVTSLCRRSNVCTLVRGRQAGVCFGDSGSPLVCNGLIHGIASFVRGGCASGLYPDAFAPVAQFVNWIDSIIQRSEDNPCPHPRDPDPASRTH
compound,measurement,setting,value
"C[C@@H]1C[C@H]2OC(=O)[C@@]3(C)CCC[C@@](C)([C@@H]23)[C@@]1(O)CCc1ccoc1 [Marrubiin, marrubiin]",IC50,Dipeptidyl Peptidase 4,> 10 µM
same,IC50,NE,> 10 µM
same,"relative levels of TNF-α, IL-6, IL-1β, MCP-1, CXCL2",[1],reduced to varying degrees
same,"Cat G protein level, % of original level",Cat G; 96 h,30.2%
same,"Cat G protein level, % of original level",Cat G; 5 days,12.3%
